Results: patent US5130307A, “Aminoesters of rapamycin” (American Home Products Corporation, priority 1991, dated 1992)
Converted amounts (≈) assume the structure as drawn.

Assays:
[1] = test system: Candida albicans ATCC 38247; test: antifungal plate test, MIC; assay type: cell-based; settings: ATCC38247
Procedure: (§1) The following represents the typical procedure used. Compound to be tested was placed on sterile dried 1/4" plate disks, and allowed to dry. Agar plates were seeded with fungi and allowed to solidify. The impregnated disks were placed on the seeded Agar surface and incubated for the time required for the particular culture. Results are expressed in MIC (μg/ml) to inhibit growth.

[2] = test system: Candida albicans ATCC 10231; test: antifungal plate test, MIC; assay type: cell-based; settings: ATCC10231
Procedure: as §1

[3] = test system: Candida albicans ATCC 38248; test: antifungal plate test, MIC; assay type: cell-based; settings: ATCC38248
Procedure: as §1

[4] = test system: Candida albicans ATCC 38246; test: antifungal plate test, MIC; assay type: cell-based; settings: ATCC38246
Procedure: as §1

[5] = test system: Candida albicans 3669; test: antifungal plate test, MIC; assay type: cell-based
Procedure: as §1

[6] = test system: pinch skin graft from male DBA/2 donors transplanted to male BALB/c recipients; test: survival time of pinch skin graft; assay type: in vivo; settings: intraperitoneally; mean ± SD
Procedure: Immunosuppressive activity was evaluated in an in vitro standard pharmacological test procedure to measure lymphocyte proliferation (LAF) and in two in vivo standard pharmacological test procedures. The first in vivo procedure was a popliteal lymph node (PLN) test procedure which measured the effect of compounds of this invention on a mixed lymphocyte reaction and the second in vivo procedure evaluated the survival time of a pinch skin graft.
The second in vivo test procedure is designed to determine the survival time of pinch skin graft from male DBA/2 donors transplanted to male BALB/c recipients. The method is adapted from Billingham R.E. and Medawar P.B., J. Exp. Biol. 28:385-402, (1951). Briefly, a pinch skin graft from the donor is grafted on the dorsum of the recipient as a homograft, and an autograft is used as control in the same region. […] Untreated recipients serve as rejection control. The graft is monitored daily and observations are recorded until the graft becomes dry and forms a blackened scab. This is considered as the rejection day. The mean graft survival time (number of days ±S.D.) of the drug treatment group is compared with the control group.

[7] = test system: transplant rejection; settings: cited from earlier work

| SMILES | MIC [1] | MIC [2] | MIC [3] | MIC [4] | MIC [5] | Skin Graft (days + SD), mean graft survival time [6] | inhibition of transplant rejection / immunosuppressive effect (in words) [7] |
| --- | --- | --- | --- | --- | --- | --- | --- |
| CO[C@H]1C[C@@H]2CC[C@@H](C)[C@@](O)(O2)C(=O)C(=O)N2CCCC[C@H]2C(=O)O[C@H]([C@H](C)C[C@@H]2CC[C@@H](OC(=O)C[C@H](NC(=O)OC(C)(C)C)C(=O)OCc3ccccc3)[C@H](OC)C2)CC(=O)[C@H](C)/C=C(\C)[C@@H](OC(=O)C[C@H](NC(=O)OC(C)(C)C)C(=O)OCc2ccccc2)[C@@H](OC)C(=O)[C@H](C)C[C@H](C)/C=C/C=C/C=C/1C [Example 8, Rapamycin-31,42-diester with 3-[[(1,1-dimethylethoxy)carbonyl]amino]-4-oxo-4-(phenylmethoxy) butanoic acid] | > 0.4 µg/mL | > 0.4 µg/mL | > 0.4 µg/mL | > 0.4 µg/mL | > 0.4 µg/mL |  |  |
| CO[C@H]1C[C@@H]2CC[C@@H](C)[C@@](O)(O2)C(=O)C(=O)N2CCCC[C@H]2C(=O)O[C@H]([C@H](C)C[C@@H]2CC[C@@H](OC(=O)C[C@H](NC(=O)OC(C)(C)C)C(=O)OCc3ccccc3)[C@H](OC)C2)CC(=O)[C@H](C)/C=C(\C)[C@@H](O)[C@@H](OC)C(=O)[C@H](C)C[C@H](C)/C=C/C=C/C=C/1C [Example 9, Rapamycin-42-ester with 3-[[(1,1-dimethylethoxy)carbonyl]amino]-4-oxo-4-(phenylmethoxy) butanoic acid] | 0.4 µg/mL (≈ 0.328 µM) | 0.4 µg/mL (≈ 0.328 µM) | > 0.4 µg/mL | > 0.4 µg/mL | > 0.4 µg/mL | 10.3 ± 0.8 days |  |
| CO[C@H]1C[C@@H]2CC[C@@H](C)[C@@](O)(O2)C(=O)C(=O)N2CCCC[C@H]2C(=O)O[C@H]([C@H](C)C[C@@H]2CC[C@@H](OC(=O)[C@H](CC(=O)OCc3ccccc3)NC(=O)OC(C)(C)C)[C@H](OC)C2)CC(=O)[C@H](C)/C=C(\C)[C@@H](OC(=O)[C@H](CC(=O)OCc2ccccc2)NC(=O)OC(C)(C)C)[C@@H](OC)C(=O)[C@H](C)C[C@H](C)/C=C/C=C/C=C/1C [Example 7, Rapamycin-31,42-diester with 2-[[(1,1-dimethylethoxy)carbonyl]amino]-4-oxo-4-(phenylmethoxy) butanoic acid] |  |  |  |  |  | 7.7 ± 1.5 days |  |
| C=CC[C@@H]1/C=C(\C)C[C@H](C)C[C@H](OC)[C@H]2O[C@@](O)(C(=O)C(=O)N3CCCC[C@H]3C(=O)O[C@H](/C(C)=C/[C@@H]3CC[C@@H](O)[C@H](OC)C3)[C@H](C)[C@@H](O)CC1=O)[C@H](C)C[C@@H]2OC [FK-506] |  |  |  |  |  |  | effective as immunosuppressive agents |
| CO[C@H]1C[C@@H]2CC[C@@H](C)[C@@](O)(O2)C(=O)C(=O)N2CCCC[C@H]2C(=O)O[C@H]([C@H](C)C[C@@H]2CC[C@@H](OC(=O)CC[C@H](NC(=O)OC(C)(C)C)C(=O)OC(C)(C)C)[C@H](OC)C2)CC(=O)[C@H](C)/C=C(\C)[C@@H](OC(=O)CC[C@H](NC(=O)OC(C)(C)C)C(=O)OC(C)(C)C)[C@@H](OC)C(=O)[C@H](C)C[C@H](C)/C=C/C=C/C=C/1C [Example 11, Rapamycin-31,42-diester with 5-(1,1-dimethylethoxy)-4-[[(1,1-dimethylethoxy)-carbonyl]-amino]-5-oxopentanoic acid] | > 0.4 µg/mL | > 0.4 µg/mL | > 0.4 µg/mL | > 0.4 µg/mL | > 0.4 µg/mL | 10.5 ± 1.3 days |  |
| CO[C@H]1C[C@@H]2CC[C@@H](C)[C@@](O)(O2)C(=O)C(=O)N2CCCC[C@H]2C(=O)O[C@H]([C@H](C)C[C@@H]2CC[C@@H](OC(=O)[C@H](CCC(=O)OC(C)(C)C)NC(=O)OC(C)(C)C)[C@H](OC)C2)CC(=O)[C@H](C)/C=C(\C)[C@@H](OC(=O)[C@H](CCC(=O)OC(C)(C)C)NC(=O)OC(C)(C)C)[C@@H](OC)C(=O)[C@H](C)C[C@H](C)/C=C/C=C/C=C/1C [Example 5, Rapamycin-31,42-diester with 5-(1,1-dimethylethoxy)-2-[[(1,1-dimethylethoxy)carbonyl]amino]-5-oxopentanoic acid] | > 0.4 µg/mL | > 0.4 µg/mL | > 0.4 µg/mL | > 0.4 µg/mL | > 0.4 µg/mL | 8.8 ± 0.9 days |  |
| CO[C@H]1C[C@@H]2CC[C@@H](C)[C@@](O)(O2)C(=O)C(=O)N2CCCC[C@H]2C(=O)O[C@H]([C@H](C)C[C@@H]2CC[C@@H](OC(=O)CN(C)C(=O)OC(C)(C)C)[C@H](OC)C2)CC(=O)[C@H](C)/C=C(\C)[C@@H](OC(=O)CN(C)C(=O)OC(C)(C)C)[C@@H](OC)C(=O)[C@H](C)C[C@H](C)/C=C/C=C/C=C/1C [Example 3, Rapamycin-31,42-diester with N-[(1,1-dimethylethoxy)carbonyl]-N-methylglycine] | > 0.4 µg/mL | 0.4 µg/mL (≈ 0.318 µM) | > 0.4 µg/mL | > 0.4 µg/mL | 0.4 µg/mL (≈ 0.318 µM) | 9.0 ± 0.9 days |  |
| CO[C@H]1C[C@@H]2CC[C@@H](C)[C@@](O)(O2)C(=O)C(=O)N2CCCC[C@H]2C(=O)O[C@H]([C@H](C)C[C@@H]2CC[C@@H](OC(=O)CNC(=O)CNC(=O)OC(C)(C)C)[C@H](OC)C2)CC(=O)[C@H](C)/C=C(\C)[C@@H](OC(=O)CNC(=O)CNC(=O)OC(C)(C)C)[C@@H](OC)C(=O)[C@H](C)C[C@H](C)/C=C/C=C/C=C/1C [Example 2, Rapamycin-31,42-diester with N-[(1,1-dimethylethoxy)carbonyl]-glycylglycine] | 0.2 µg/mL (≈ 0.149 µM) | 0.1 µg/mL (≈ 0.0745 µM) | 0.2 µg/mL (≈ 0.149 µM) | 0.2 µg/mL (≈ 0.149 µM) | 0.1 µg/mL (≈ 0.0745 µM) | 11.5 ± 0.6 days |  |
| CO[C@H]1C[C@@H]2CC[C@@H](C)[C@@](O)(O2)C(=O)C(=O)N2CCCC[C@H]2C(=O)O[C@H]([C@H](C)C[C@@H]2CC[C@@H](OC(=O)[C@H](CCCCNC(=O)OC(C)(C)C)NC(=O)OC(C)(C)C)[C@H](OC)C2)CC(=O)[C@H](C)/C=C(\C)[C@@H](OC(=O)[C@H](CCCCNC(=O)OC(C)(C)C)NC(=O)OC(C)(C)C)[C@@H](OC)C(=O)[C@H](C)C[C@H](C)/C=C/C=C/C=C/1C [Example 13, Rapamycin-31,42-diester with N^α, N^ε bis [(1,1-dimethylethoxy)carbonyl]-L-lysine] | > 0.4 µg/mL | > 0.4 µg/mL | > 0.4 µg/mL | > 0.4 µg/mL | > 0.4 µg/mL | 7.0 ± 0.6 days |  |
| CO[C@H]1C[C@@H]2CC[C@@H](C)[C@@](O)(O2)C(=O)C(=O)N2CCCC[C@H]2C(=O)O[C@H]([C@H](C)C[C@@H]2CC[C@@H](OC(=O)[C@H](CCC(=O)OC(C)(C)C)NC(=O)OC(C)(C)C)[C@H](OC)C2)CC(=O)[C@H](C)/C=C(\C)[C@@H](O)[C@@H](OC)C(=O)[C@H](C)C[C@H](C)/C=C/C=C/C=C/1C [Example 6, Rapamycin-42-ester with 5-(1,1-dimethylethoxy)-2-[[(1,1-dimethylethoxy)carbonyl]amino]-5-oxopentanoic acid] | 0.2 µg/mL (≈ 0.167 µM) | 0.1 µg/mL (≈ 0.0834 µM) | 0.4 µg/mL (≈ 0.333 µM) | > 0.4 µg/mL | > 0.4 µg/mL | 11.5 ± 3.5 days |  |
| CO[C@H]1C[C@@H]2CC[C@@H](C)[C@@](O)(O2)C(=O)C(=O)N2CCCC[C@H]2C(=O)O[C@H]([C@H](C)C[C@@H]2CC[C@@H](OC(=O)CC[C@H](NC(=O)OC(C)(C)C)C(=O)OC(C)(C)C)[C@H](OC)C2)CC(=O)[C@H](C)/C=C(\C)[C@@H](O)[C@@H](OC)C(=O)[C@H](C)C[C@H](C)/C=C/C=C/C=C/1C [Example 10, Rapamycin-42-ester with 5-(1,1-dimethyloxy)-4-[[(1,1-dimethylethoxy)carbonyl]amino]-5-oxopentanoicacid] | 0.2 µg/mL (≈ 0.167 µM) | 0.2 µg/mL (≈ 0.167 µM) | 0.4 µg/mL (≈ 0.333 µM) | > 0.4 µg/mL | 0.4 µg/mL (≈ 0.333 µM) | 12.7 ± 1.2 days |  |
| CO[C@H]1C[C@@H]2CC[C@@H](C)[C@@](O)(O2)C(=O)C(=O)N2CCCC[C@H]2C(=O)O[C@H]([C@H](C)C[C@@H]2CC[C@@H](OC(=O)CNC(=O)CNC(=O)OC(C)(C)C)[C@H](OC)C2)CC(=O)[C@H](C)/C=C(\C)[C@@H](O)[C@@H](OC)C(=O)[C@H](C)C[C@H](C)/C=C/C=C/C=C/1C [Example 1, Rapamycin-42-ester with N-[(1,1-dimethylethoxy)carbonyl]-glycylglycine] | > 0.4 µg/mL | > 0.4 µg/mL | > 0.4 µg/mL | > 0.4 µg/mL | > 0.4 µg/mL | 12.0 ± 1.6 days |  |
| CO[C@H]1C[C@@H]2CC[C@@H](C)[C@@](O)(O2)C(=O)C(=O)N2CCCC[C@H]2C(=O)O[C@H]([C@H](C)C[C@@H]2CC[C@@H](OC(=O)CN(C)C(=O)OC(C)(C)C)[C@H](OC)C2)CC(=O)[C@H](C)/C=C(\C)[C@@H](O)[C@@H](OC)C(=O)[C@H](C)C[C@H](C)/C=C/C=C/C=C/1C [Example 4, Rapamycin-42-ester with N-[(1,1-dimethylethoxy)carbonyl]-N-methylglycine] | 0.1 µg/mL (≈ 0.0921 µM) | 0.1 µg/mL (≈ 0.0921 µM) | 0.1 µg/mL (≈ 0.0921 µM) | 0.4 µg/mL (≈ 0.369 µM) | 0.2 µg/mL (≈ 0.184 µM) | 12.3 ± 0.5 days |  |
